What follows are compounds tested against RIPK1 (recombinant GST-RIPK1 kinase domain, residues 1-327) (Homo sapiens (Human), UniProt Q13546) (assay: RIPK1-ADP-Glo Enzymatic Assay). Conditions: 25 nM GST-RIPK1, 300 μM ATP, 3 μM dephosphorylated-MBP; 30 minutes pre-incubation, 150 minutes reaction; ten-point titration.
Assay type: biochemical
Method in brief: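 GST-tagged RIPK1 (25 nM) was preincubated 30 min with compound at ambient temperature in HEPES pH 7.3 buffer, then run 150 min with 300 μM ATP and 3 μM dephosphorylated MBP. ADP was read by ADP-Glo luminescence. EC50 came from 10-point, 1:3 titrations (top 100000 nM, 1% DMSO) fitted to a four-parameter model.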

Chain of RIPK1 (recombinant GST-RIPK1 kinase domain, residues 1-327) (Q13546 1-327): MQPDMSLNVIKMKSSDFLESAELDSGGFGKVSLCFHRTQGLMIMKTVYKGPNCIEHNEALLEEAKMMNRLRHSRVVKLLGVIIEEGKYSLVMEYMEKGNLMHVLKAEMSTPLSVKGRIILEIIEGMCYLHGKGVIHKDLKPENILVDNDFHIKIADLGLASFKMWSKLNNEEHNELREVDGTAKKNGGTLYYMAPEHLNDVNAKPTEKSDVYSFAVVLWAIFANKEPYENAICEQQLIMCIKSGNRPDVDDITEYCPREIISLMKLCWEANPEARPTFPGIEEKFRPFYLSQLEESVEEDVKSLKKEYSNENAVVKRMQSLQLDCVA

IC50 [µM]	SMILES
0.143	Cc1ccc2c(c1)[C@@H]1C[C@@H](CN1C(=O)C(C)(C)C(F)F)O2 [Compound 2-3, 3,3-difluoro-2,2-dimethyl-1-[(2S,5S)-7-methyl-2,3-dihydro-2,5-methano-1,4-benzoxazepin-4(5H)-yl]propan-1-one]
3.98	C[C@@]12C[C@@H](c3ccccc3O1)N(C(=O)C13CCC(F)(CC1)C3)C2 (single isomer, unassigned) [Compound 3-8]
0.034	CC(C)(C)C(=O)N1C[C@@H]2C[C@H]1c1cc(F)ccc1O2 [Compound 2-5, 1-[(2S,5S)-7-fluoro-2,3-dihydro-2,5-methano-1,4-benzoxazepin-4(5H)-yl]-2,2-dimethylpropan-1-one]
0.03	CC1(C(=O)N2C[C@@H]3C[C@H]2c2cccc(F)c2O3)CCC1 [Compound 2-10, [(2S,5S)-9-fluoro-2,3-dihydro-2,5-methano-1,4-benzoxazepin-4(5H)-yl](1-methylcyclobutyl)methanone]
0.03	CC(C)(C(=O)N1C[C@@H]2C[C@H]1c1cc(F)cc(Cl)c1O2)C(F)F [Compound 2-24, 1-[(2S,5S)-9-chloro-7-fluoro-2,3-dihydro-2,5-methano-1,4-benzoxazepin-4(5H)-yl]-3,3-difluoro-2,2-dimethylpropan-1-one]
0.158	CC(C)(C(=O)N1C[C@@H]2C[C@H]1c1cc(C#N)ccc1O2)C(F)F [Compound 2-2, (2S,5S)-4-(3,3-difluoro-2,2-dimethylpropanoyl)-2,3,4,5-tetrahydro-2,5-methano-1,4-benzoxazepine-7-carbonitrile]
0.048	CC(C)(C)C(=O)N1C[C@@H]2C[C@H]1c1ccccc1O2 [Compound 1-1, 1-((2S,5S)-2,3-dihydro-2,5-methanobenzo[f][1,4]oxaze-pin-4(5H)-yl)-2,2-dimethylpropan-1-one]
0.921	CC1(C)CCC1C(=O)N1C[C@@H]2C[C@H]1c1ccccc1O2 (mixture of isomers) [Compound 1-27, [(2S,5S)-2,3-dihydro-2,5-methano-1,4-benzoxazepin-4(5H)-yl]-[(R and S)-2,2-dimethylcyclobutyl] methanone]
0.06	CC(C)(C)C(=O)N1C[C@@H]2C[C@H]1c1cc(F)cc(F)c1O2 [Compound 2-4, 1-[(2S,5S)-7,9-difluoro-2,3-dihydro-2,5-methano-1,4-benzoxazepin-4(5H)-yl]-2,2-dimethylpropan-1-one]
0.069	CC(C(=O)N1C[C@@H]2C[C@H]1c1ccccc1O2)(C(F)(F)F)C(F)(F)F [Compound 1-24, 1-[(2S,5S)-2,3-dihydro-2,5-methano-1,4-benzoxazepin-4(5H)-yl]-3,3,3-trifluoro-2-methyl-2-(trifluoromethyl)propan-1-one]
0.267	O=C(N1C[C@H]2Cc3ccccc3[C@@H]1C2)C12CCC(C(F)(F)F)(CC1)C2 (single isomer, unassigned) [Compound 3-4]
0.013	O=C(N1C[C@@H]2C[C@H]1c1ccccc1O2)C12CCC(C(F)F)(CC1)C2 [Compound 1-41, (4-(difluoromethyl)bicyclo [2.2.1]heptan-1-yl)((2S,5S)-2,3-dihydro-2,5-methanobenzo[f][1,4]oxaze-pin-4(5H)-yl)methanone]
0.075	CC1(C(=O)N2C[C@@H]3C[C@H]2c2cccc(F)c2O3)CC(C#N)C1 (stereo partly drawn) [Compound 2-30, 3-((2S,5S)-9-fluoro-2,3,4,5-tetrahydro-2,5-methanobenzo[f][1,4]oxaze-pine-4-carbonyl)-3-methylcyclobutane-1-carbonitrile]
0.073	CC(C)(C(=O)N1C[C@@H]2C[C@H]1c1ccccc1O2)C(F)(F)F [Compound 1-18, 1-[(2S,5S)-2,3-dihydro-2,5-methano-1,4-benzoxazepin-4(5H)-yl]-3,3,3-trifluoro-2,2-dimethylpropan-1-one]
